# Patent US20220151979A1, “COMPOSITION FOR PREVENTION OR TREATMENT OF CARDIOVASCULAR AND METABOLIC DISEASE COMPRISING NORANHYDROICARITIN” (SEOUL NATIONAL UNIVERSITY HOSPITAL, priority 2019, published 2022)
# What was measured:
# [1] = system: PCSK9 mRNA; assay: PCSK9 mRNA by RealTime-PCR in HepG2 cells; type: cell-based, human; conditions: 24 hours
# Excerpt: Proprotein convertase subtilisin/kexin type 9 (PCSK9) is an enzyme involved in lipid metabolism and is attached to low-density lipoprotein receptor (LDLR) bound to low-density lipoprotein (LDL) in the liver or other cell membranes to degrade LDLR so that LDLR cannot be regenerated into the cell membrane and cannot absorb extracellular LDL. Therefore, inhibition of PCSK9 production increases LDLR, decreases extracellular LDL, and lowers cholesterol levels, and thus lipid metabolism-related diseases may be alleviated. Therefore, in order to confirm the PCSK9 production inhibitory effect of noranhydroicaritin, HepG2 cells were treated with noranhydroicaritin at various concentrations, and then the relative quantity of PCSK9 mRAN was confirmed through RealTime-PCR.
# Specifically, HepG2 cells were suspended at a concentration of 2.5×10^5 cells/mL, and 1 mL thereof was inoculated into each well of a […], and then maintained for one day. The HepG2 cells in the well plate were treated with kaempferol and noranhydroicaritin at concentrations of 2.5 μM, 5 μM, 10 μM, and 20 μM, and incubated for 24 hours, and then RNA was recovered, quantified, and stored at −70° C. Thereafter, cDNA was synthesized from the RNA and the quantity of PCSK9 mRNA was confirmed through RealTime-PCR analysis. The group treated only with DMSO was used as a negative control. […]
# [2] = system: PCSK9 promoter; assay: PCSK9 promoter-reporter luciferase assay in HEK293T cells; type: cell-based, human; conditions: pGL4.14-PCSK9-transfected HEK293T cells, 2.5-20 μM, 18 hours
# Method: In order to confirm the PCSK9 gene expression inhibitory effect of noranhydroicaritin, HEK293T cells were treated with noranhydroicaritin at various concentrations, and it was confirmed whether the expression of PCSK9 was inhibited through a luciferase assay.
# i) A primer was prepared to contain KpnI and XhoI restriction enzyme sites in the PCSK9 promoter gene region, and then PCR (polymerase chain reaction) and electrophoresis on an agarose gel were performed to isolate PCSK9 promoter region DNA. A pGL4.14-[luc2/Hygro] vector containing a firefly luciferase as a reporter gene was treated with the same restriction enzymes (KpnI and XhoI), and then isolated via agarose gel electrophoresis and gel extraction. […]
# ii) In order to measure the transcriptional activity of the PCSK9 promoter gene, HEK293T cells were transfected with pGL4.14-PCSK9, and then the luciferase activity of the cell extract was measured. […]
# iii) After 18 hours of incubation, cells were washed with PBS one time, an appropriate amount of luciferase reagent was added to each well, then the plate was shaken for 15 min, the supernatant was obtained, and the transcriptional activity was measured. Passive lysis buffer was used, and the luciferase activity was measured using a microplate luminometer (Tecan). […]
# [3] = system: PPARγ; assay: PPARγ expression in HepG2 cells (RealTime-PCR, immunohistochemistry); type: cell-based, human
# Method: In order to confirm the effect of increasing the expression of PPARα and PPARγ of noranhydroicaritin, PCR using PPARα primers and immunohistochemistry targeting PPARα and PPARγ were performed to confirm the expression levels.
# Using cDNA synthesized with RNA according to the method of Example 4, the quantities of PPARα mRNA and PPARγ mRNA were confirmed through RealTime-PCR analysis. The group treated only with DMSO was used as a negative control. For immunohistochemistry, HepG2 cells were attached to a slide chamber, then treated with noranhydroicaritin at 20 μM, and incubated. After fixation with formalin, the HepG2 cells were stained with antibodies targeting PPARα and PPARγ, and treated with DAPI to stain nuclei, and the degree of fluorescent expression was confirmed using a confocal microscope.
# [4] = system: TNF-α; assay: Immunofluorescence of TNF-α in carotid artery, mouse arteriosclerosis model; type: in vivo; conditions: 10 μg/g/day
# Method: (§1) Carotid artery ligation was performed one week after injection of AAV-PCSK9 Virus (1×10^11 IFU/mL) and noranhydroicaritin (10 μg/g/day). After 3 weeks of ligation, it was confirmed whether the atherosclerosis model was completed, and gross plaque imaging and immunofluorescence were performed to confirm the arteriosclerosis inhibitory effect of noranhydroicaritin.
# (§2) Furthermore, the arteriosclerosis inhibitory effect of noranhydroicaritin was confirmed using immunofluorescence. Specifically, a mouse carotid artery was obtained and fixed in 4% PFA for one day, and then prepared into a block. As the inflammatory response in blood vessels progresses, the arteriosclerosis worsens, and thus the marker […] of macrophages causing arteriosclerotic inflammatory response and TNF-α, IL-1B, and MCP-1, which are pro-inflammatory cytokines secreted when the inflammatory response occurs, were stained. Staining was performed using the antibody for each of CAP1(1:200), PCSK9(1:100), F4/80(1:100), TNF-α(1:100), […], and MCP-1(1:100), then imaging was performed using a confocal microscope, and […] was evaluated.
# [5] = system: MCP-1; assay: Immunofluorescence of MCP-1 in carotid artery, mouse arteriosclerosis model; type: in vivo; conditions: 10 μg/g/day
# Method: as §1, §2
# [6] = system: PCSK9; assay: Immunofluorescence of PCSK9 in carotid artery, mouse arteriosclerosis model; type: in vivo; conditions: 10 μg/g/day, compared to control
# Method: as §1, §2
compound,measurement,setting,value
"CC(C)=CCc1c(O)cc(O)c2c(=O)c(O)c(-c3ccc(O)cc3)oc12 [Noranhydroicaritin, noranhydroicaritin]",PCSK9 production inhibitory effect (quantity of PCSK9 mRNA),[1]; 2.5 μM and 5 μM,remarkably superior to that of the control
same,PCSK9 production inhibitory effect (quantity of PCSK9 mRNA),[1]; same concentration as control,superior to that of atorvastatin or rosuvastatin
same,PCSK9 luciferase activity,[2],decreased in a noranhydroicaritin concentration-dependent manner
same,expression of PPARγ,[3],increased in a concentration-dependent manner
same,expression of TNF-α (immunofluorescence),[4],decreased
same,expression of MCP-1 (immunofluorescence),[5],decreased
same,expression of PCSK9 (immunofluorescence),[6],significantly decreased
